In patent publication US20240108739A1, “OLIGOMERIC COMPOUNDS BINDING SPECIFICALLY TO PROTEOGLYCANS” (PHI PHARMA SA, priority 2020, published 2024):
Starred links: 1 amine or outer side, 2 acyl side, 3 side chain; linkers in the order of their positions; H or OH if unused. Positions of bridges follow the written chain, without caps; N, C: chain ends. Non-standard residues stand in square brackets, D forms with d. Residues, ends and D or L forms follow the SMILES beside them. Chains are numbered I, II in the order given. No end group written: not given here. ξ: configuration not given here. *: point of attachment. X1 = CC1(C)C(/C=C/C(=C/C=C2\N(CCCS(=O)(=O)O)c3ccc(S(=O)(=O)O)cc3C2(C)C)c2cccc(CCC(=O)NCCN3C(=O)CC(*)C3=O)c2)=Nc2c1cc(Cl)c[n+]2CCCS(=O)(=O)[O-]; X3 = N=c1ccc2c(-c3ccc(C(=O)NCCCCCN4C(=O)CC(*)C4=O)cc3C(=O)O)c3ccc(N)c(S(=O)(=O)O)c3oc-2c1S(=O)(=O)O; X2 = O=C(CCCCCN1C(=O)CC(*)C1=O)NNC(=O)CCCCC1SC[C@H]2NC(=O)N[C@@H]12; NH(CH2CH2O)5CH2CO = O=C(COCCOCCOCCOCCOCCN[*:1])[*:2]; ξIle = CC[C@H](C)C(N)C(=O)O; Orn = NCCC[C@H](N)C(=O)O; AEA = NCCOCC(=O)O

Columns and labels:
[1] = tested on: CHO-K1 cells (wild type, GAG present); assay: Flow cytometry binding of biotinylated compounds to CHO cells (Example 3); assay type: cell-based; conditions: 30 min at 4 °C, streptavidin-680RD fluorescence; FIG. 3A
Procedure: (§1) Cell lines in exponential growth phase were cultured in complete culture medium with 10% FBS and grown in 75 cm^2 cell culture flasks. On the day of the experiment, cells were harvested and transferred in V-bottom culture plates, washed with PBS 1× supplemented with BSA 3% and then incubated with (51-hS)2KC-Mal-Biotin, (51-hS)2KS-(51-hS)KC-Mal-Biotin, [(51-hS)2KS]2KK(Biotin) and VAR2-Biotin for 30 min at 4° C. in PBS 1× supplemented with BSA 3% (and eventually PEG600 2%) at various dilutions (serial dilutions).
(§2) After the incubation, cells were washed in PBS 1× supplemented with BSA 3%. For visualization, cells were incubated for 15 min at 4° C. with streptavidin coupled to 680RD fluorochrome. After the incubation, cells were washed in PBS 1× supplemented with 3% BSA and then incubated for at least 15 min at 4° C. with 4′,6-diamidino-2-phenylindole (DAPI) (Thermo Fisher Scientific) in order to exclude dead cells. Samples were directly applied to a flow cytometer. Data generated on the flow cytometer was analyzed using Flowjo™ 10.6.0.

[2] = tested on: CHO-pgsA-745 cells (GAG-deficient mutant); assay: as above; assay type: cell-based; conditions: 30 min at 4 °C, streptavidin-680RD fluorescence; FIG. 3B
Procedure: as §1, §2

[3] = background statement; cited from earlier work
HCT 116 tumor xenograft = assay: In vivo biodistribution by Optical Imaging in HCT 116 xenografted mice (Example 9); set-up: species or system athymic nude mice
Procedure: For this purpose, HCT 116 cells were subcutaneously inoculated into the shoulder of athymic nude mice, and then the fluorescently-labelled compound was administered intravenously.
Optical Imaging was used to evaluate fluorescent signals in mice 0.5, 1, 3, 8, 24, and 72 hours after the administration of [(51-hS)2KS]2KC-Mal-680RD at 3 different concentrations. Flow cytometry was also used to evaluate the tumor target expression in xenografted mice.
HCT-116 cells were grown in McCoy's 5a medium supplemented with 10% foetal bovine serum, 100 IU/mL penicillin and 100 μg/mL streptomycin. The trypan-blue exclusion test was used to assess cell viability before cells inoculation. An aliquot (10 μL) of cell suspension was mixed with an equal amount of 0.4% trypan blue solution in PBS. 10 μL of the final solution was introduced in a counting chamber (hemocytometer). Viable cells appear round and bright, while damaged cells appear deep blue because of the incorporation of the trypan dye. Cell viability was expressed as % of viable cells over total cells). Cell cultures with viability of less than 70% were discarded.
HCT 116 cells were collected and washed two times with PBS. One million of HCT 116 cells were suspended in 1:1 Matrigel™: McCoy's 5a (total volume 0.15 mL) and then injected subcutaneously into the shoulder of each female mouse of groups A, B, C.
Animals were randomly assigned to the following experimental groups, Table 12.
All animals were dosed once according to Table 12 when the tumors reached approximately 500-600 mm^3. The solutions were injected intravenously via the tail vein at the administration volume of 100 μL. After each injection the tail vein was flushed with 100 μL of sterile saline solution. All animals were individually inspected before the treatment and 0.5, 1, 3, 8, 24, and 72 hours after treatment.
Clinical signs of the animals, such as posture, movement, breath, external body appearance, and any other relevant clinical sign were recorded. Mice of groups A, B, and C were anesthetized under 3-4% Sevoflurane gas anaesthesia (O2 95.0%) and imaged 0.5, 1, 3, 8, 24, and 72 hours post treatments. Mice were irradiated with filtered light of wavelength 675 nm and an image of emission light intensity was collected at 720 nm wavelength. Field of View, fstop, Binning and Exposition Time were determined during experimental setting. Regions of interest (ROIs) were selected by an operator over the acquired supine, dorsal, and side views. The signal intensity within the ROIs was determined automatically by the software. At the end of the experiment the mice were sacrificed and tumors were excised to measure ex vivo the fluorescent signal intensity.

[4] = tested on: HCT-116 cells (colon carcinoma); assay: Internalization in adherent cells, Trypan Blue quenching flow cytometry (Example 6); assay type: cell-based; conditions: 200 nM, 37 °C, FIG. 8
Procedure: Adherent cell lines in exponential growth phase were cultured in complete culture medium with 10% FBS and grown in flat-bottom culture plates. On the day of the experiment, cells were washed with culture medium supplemented with 3% BSA (Sigma-Aldrich) and then incubated with peptides coupled with A488 fluorochrome for various timepoints (from 5 to 160 min) at a single concentration or at various dilutions (serial dilutions) at a determined timepoint at 37° C. in the corresponding culture medium supplemented with 3% BSA. After the incubation, cells were washed in PBS 1× and detached using trypsin. Following trypsinization, cells were washed in PBS 1× supplemented with 3% BSA and then incubated for at least 15 min at 4° C. with DAPI (Thermo Fisher Scientific) in order to exclude dead cells. Right before acquisition on a flow cytometer, samples were divided in two. The first series of samples was acquired directly on a flow cytometer whereas the second series was supplemented with Trypan Blue in order to observe the internal fluorescence only. The percentage of internalization was further determined.
Fluorescence geometric mean of samples is standardised by subtracting fluorescence geometric mean of negative control (no compound) and the addition of 1.

[5] = tested on: chondroitin-4-sulfate (C4S); assay: ELISA binding to purified GAGs (Example 1); conditions: SAV-HRP/TMB absorbance 450 nm, binding at pH 6.4 for 1 hour at 37 °C, FIG. 1
Procedure: (§3) ELISA plates were coated with various purified GAGs (Sigma, AMBIO) in PBS pH 7.4 for 2 hours at 37° C. Plates were blocked overnight at 4° C. with 200 μl of PBS pH 7.4, Tween 0.05%+BSA 3%+PEG400 2%, then washed twice with fresh buffer TSCM pH 6.4 ((Tris 20 mM, NaCl 150 mM, BSA 1%, Tween 0.05%, 2 mM MgCl2, 2 mM CaCl2). Binding of the different peptides at serial dilution was conducted in TSCMP (TSCM+2% (w/v) PEG 600) pH 6.4 for 1 hour at 37° C. (100 ul per well). Plates were washed three times with fresh TSCM pH 6.4 (200 ul per well) and SAV-HRP was added at a dilution of 1/8000 (100 ul per well) for 20 min at room temperature. Following 3 washes with PBS pH 7.4, 3,3′,5,5′-tetramethylbenzidine (TMB) substrate was added for 10 min (100 ul per well), protected from light. The reaction was stopped by addition of 100 μl of 1 M H2SO4 and the absorbance at 450 nm was measured.
(§4) The GAGs tested in this example were: C4Str: chondroitin-4-sulfate(tracheal); C4Sns: chondroitin-4-sulfate (nasal); CSPG: chondroitin sulfate proteoglycan; C6S: chondroitin-6-sulfate; HA: hyaluronic acid; HEP: heparin; HS: heparan sulfate; DS: dermatan sulfate; PBS: PBS negative control.

[6] = tested on: chondroitin-6-sulfate (C6S); assay: ELISA binding to purified GAGs (Example 1); conditions: SAV-HRP/TMB absorbance 450 nm, binding at pH 6.4 for 1 hour at 37 °C, FIG. 1
Procedure: as §3, §4

CHO-K1 (WT) cells = assay: Flow cytometry binding of 680RD-labelled PEG variants to CHO cells (Example 4); assay type: cell-based; conditions: 680RD fluorescence, 30 min at 4 °C, BSA 3% + PEG600 2%; FIGS. 4 and 5
Procedure: Tumor cell lines in exponential growth phase were cultured in complete culture medium with 10% FBS and grown in 75 cm^2 cell culture flasks. On the day of the experiment, cells were harvested and transferred in V-bottom culture plates, washed with PBS 1× supplemented with BSA 3% and then incubated with compounds of the present invention coupled with 680RD fluorochrome for 30 min at 4° C. in PBS 1× supplemented with BSA 3% and PEG600 2% at various dilutions (serial dilutions).
After the incubation, cells were washed in PBS 1× supplemented with BSA 3%.
After the incubation, cells were washed in PBS 1× supplemented with 3% BSA and then incubated for at least 15 min at 4° C. with DAPI (Thermo Fisher Scientific) in order to exclude dead cells and samples are directly acquired on a flow cytometer. Data generated on the flow cytometer was analyzed using Flowjo™ 10.6.0.

## CC[C@H](C)C(NC(=O)[C@H](CCCNC(=N)N)NC(=O)[C@H](NC(=O)[C@H](Cc1ccccc1)NC(=O)[C@H](Cc1ccc(O)cc1)NC(=O)[C@H](CCCNC(=N)N)NC(C)=O)C(C)C)C(=O)N[C@@H](CCCN)C(=O)N[C@@H](Cc1ccc(O)cc1)C(=O)N[C@@H](CCCNC(=N)N)C(=O)N[C@H](Cc1c[nH]cn1)C(=O)N[C@@H](CO)C(=O)N[C@@H](CCCCNC(=O)[C@H](CO)NC(=O)[C@@H](Cc1c[nH]cn1)NC(=O)[C@H](CCCNC(=N)N)NC(=O)[C@H](Cc1ccc(O)cc1)NC(=O)[C@H](CCCN)NC(=O)[C@@H](NC(=O)[C@H](CCCNC(=N)N)NC(=O)[C@H](NC(=O)[C@H](Cc1ccccc1)NC(=O)[C@H](Cc1ccc(O)cc1)NC(=O)[C@H](CCCNC(=N)N)NC(C)=O)C(C)C)[C@@H](C)CC)C(=O)N[C@@H](CO)C(=O)N[C@@H](CCCCNC(=O)[C@H](CO)NC(=O)[C@@H](Cc1c[nH]cn1)NC(=O)[C@H](CCCNC(=N)N)NC(=O)[C@H](Cc1ccc(O)cc1)NC(=O)[C@H](CCCN)NC(=O)[C@@H](NC(=O)[C@H](CCCNC(=N)N)NC(=O)[C@H](NC(=O)[C@H](Cc1ccccc1)NC(=O)[C@H](Cc1ccc(O)cc1)NC(=O)[C@H](CCCNC(=N)N)NC(C)=O)C(C)C)[C@@H](C)CC)C(=O)N[C@@H](CSC1CC(=O)N(CCCCCC(=O)NNC(=O)CCCCC2SC[C@H]3NC(=O)N[C@@H]23)C1=O)C(N)=O (some centres unmarked) [(51-hS)2KS-(51-hS)KC-Mal-Biotin] (I: Ac-RYF[dV]R[ξIle][Orn]YR[dH]SKSKC(X2)-NH2 / II: Ac-RYF[dV]RI[Orn]YR[dH]S / III: Ac-RYF[dV]RI[Orn]YR[dH]S; amide I:12-II:C, I:14-III:C)
[1]
  binding on CHO-K1 cells, times better than (51-hS)2KC-Mal-Biotin: 17.9 ×
[2]
  reduction of fluorescence on CHO-pgsA-745 as compared with fluorescence on CHO-K1 cells: 209.9 fold

## CCc1c2c(nc3ccc(O)cc13)-c1cc3c(c(=O)n1C2)COC(=O)[C@]3(O)CC [SN-38]
[3]
  activity relative to irinotecan: 1000 times
  potency relative to irinotecan in in vitro cytotoxicity assays: 2- to 2000 fold

## I: Ac-RYF[dV]R[ξIle][Orn]YR[dH]SKSKC(X1)-NH2 / II: Ac-RYF[dV]RI[Orn]YR[dH]SKS / III: Ac-RYF[dV]RI[Orn]YR[dH]S / IV: Ac-RYF[dV]RI[Orn]YR[dH]S (amide I:12-III:C, I:14-II:C, II:12-IV:C) [[(51-hS)2KS]2KC-Mal-680RD]
HCT 116 tumor xenograft; group B 20 nmol/mouse i.v. vs 4 nmol/mouse, dependent on dose and on blocking compound
  tumor signal of group B relative to other groups: higher tumor signal
HCT 116 tumor xenograft; groups A and B, all imaging times, FIGS. 12 and 13
  tumor to muscle ratio of fluorescence signal: almost two-fold
HCT 116 tumor xenograft; groups A, B, C (4, 20, 4 + 16 unlabeled nmol/mouse i.v.), imaging 0.5-72 h, independent of dose or blocking compound
  fluorescence signal (Average Radiant Efficiency) in the abdominal region, mainly liver and intestine: strong signal
HCT 116 tumor xenograft; tumor of all groups, mainly groups A and B, i.v., imaging 0.5-72 h
  fluorescence signal (Average Radiant Efficiency) in the tumor: presence of a signal

## I: Ac-RYF[dV]R[ξIle][Orn]YR[dH]SKSKC(X3)-NH2 / II: Ac-RYF[dV]RI[Orn]YR[dH]SKS / III: Ac-RYF[dV]RI[Orn]YR[dH]S / IV: Ac-RYF[dV]RI[Orn]YR[dH]S (amide I:12-III:C, I:14-II:C, II:12-IV:C) [[(51-hS)2KS]2KC-Mal-Alexa488]
[4]; time course up to 160 min
  extent of internalisation in HCT-116 cells: 85%
[4]
  time after which 70% is internalised in HCT-116 cells: 40 min

## RYFvRIOYR (RYF[dV]RI[Orn]YR) [SEQ ID NO:37, Peptide moiety 51]
[5]
  binding affinity to C4S: binds specifically
[6]
  binding affinity to C6S: binds specifically

## [(51-hS)2K(PEG1)]2KC-Mal-680RD: Four copies of SEQ ID NO:37, structure comprising SEQ ID NO:7 (n is 1), L-Cys conjugated to IRDye 680RD Maleimide (chain 1 RYF[dV]RI[Orn]YR; chain 2 [dH]SK[AEA]KC(IRDye 680RD maleimide); also: four peptide copies on branched Lys scaffold, further copies not in the chains)
CHO-K1 (WT) cells
  binding on CHO-K1 cells compared with [(51-hS)2KS]2KC-Mal-680RD: increased binding

## [(51-hS)2K(PEG5)]2KC-Mal-680RD: Four copies of SEQ ID NO:37, structure comprising SEQ ID NO:7 (n is 5), L-Cys conjugated to IRDye 680RD Maleimide (chain 1 RYF[dV]RI[Orn]YR; chain 2 [dH]SK[NH(CH2CH2O)5CH2CO]KC(IRDye 680RD maleimide); also: four peptide copies on branched Lys scaffold, further copies not in the chains)
CHO-K1 (WT) cells
  binding on CHO-K1 cells compared with [(51-hS)2KS]2KC-Mal-680RD: increased binding
